From ChEMBL document CHEMBL1177848, “Synthesis of novel 6,6a,7,8-tetrahydro-5H-naphtho[1,2-e]pyrimido[4,5-b][1,4]diazepines under microwave irradiation as potential anti-tumor agents” (2010)
Active and inactive are the calls of the source. The rule behind the calls is not given here.

Tests used:
NCI-H226 = assay: Growth inhibition of human NCI-H226 cells after 48 hrs by sulforhodamine B assay; type: functional; details: NCI-H226, 48 h
NCI-H23 [1] = assay: Growth inhibition of human NCI-H23 cells after 48 hrs by sulforhodamine B assay; type: functional; details: NCI-H23, 48 h
NCI-H460 [2] = assay: Growth inhibition of human NCI-H460 cells after 48 hrs by sulforhodamine B assay; type: functional; details: NCI-H460, 48 h
NCI-H522 = assay: Growth inhibition of human NCI-H522 cells after 48 hrs by sulforhodamine B assay; type: functional; details: NCI-H522, 48 h
SF-295 = assay: Growth inhibition of human SF295 cells after 48 hrs by sulforhodamine B assay; type: functional; details: SF-295, 48 h
MDA-MB-435 = assay: Growth inhibition of human MDA-MB-435 cells after 48 hrs by sulforhodamine B assay; type: functional; details: MDA-MB-435, 48 h
UACC-257 = assay: Growth inhibition of human UACC257 cells after 48 hrs by sulforhodamine B assay; type: functional; details: UACC-257, 48 h
UACC-62 [3] = assay: Growth inhibition of human UACC62 cells after 48 hrs by sulforhodamine B assay; type: functional; details: UACC-62, 48 h
A498 = assay: Growth inhibition of human A498 cells after 48 hrs by sulforhodamine B assay; type: functional; details: A498, 48 h
ACHN = assay: Growth inhibition of human ACHN cells after 48 hrs by sulforhodamine B assay; type: functional
CAKI-1 [4] = assay: Growth inhibition of human Caki1 cells after 48 hrs by sulforhodamine B assay; type: functional; details: CAKI-1, 48 h
RXF 393 = assay: Growth inhibition of human RXF393 cells after 48 hrs by sulforhodamine B assay; type: functional; details: RXF 393, 48 h
SN12C = assay: Growth inhibition of human SN12C cells after 48 hrs by sulforhodamine B assay; type: functional
TK-10 [5] = assay: Growth inhibition of human TK10 cells after 48 hrs by sulforhodamine B assay; type: functional; details: TK-10, 48 h
MCF7 [6] = assay: Growth inhibition of human MCF7 cells after 48 hrs by sulforhodamine B assay; type: functional; details: MCF7, 48 h
BT-549 [7] = assay: Growth inhibition of human BT549 cells after 48 hrs by sulforhodamine B assay; type: functional; details: BT-549, 48 h
T47D = assay: Growth inhibition of human T47D cells after 48 hrs by sulforhodamine B assay; type: functional
SR = assay: Growth inhibition of human SR cells at 1 uM after 48 hrs by sulforhodamine B assay; type: functional, cell-based
K562 = assay: Growth inhibition of human K562 cells at 1 uM after 48 hrs by sulforhodamine B assay; type: functional, cell-based
MOLT-4 = assay: Growth inhibition of human MOLT4 cells at 1 uM after 48 hrs by sulforhodamine B assay; type: functional, cell-based
HOP-92 = assay: Growth inhibition of human HOP92 cells at 1 uM after 48 hrs by sulforhodamine B assay; type: functional, cell-based
NCI-H23 [8] = assay: Growth inhibition of human NCI-H23 cells at 1 uM after 48 hrs by sulforhodamine B assay; type: functional, cell-based
NCI-H460 [9] = assay: Growth inhibition of human NCI-H460 cells at 1 uM after 48 hrs by sulforhodamine B assay; type: functional, cell-based
NCI-H322M = assay: Growth inhibition of human […] cells at 1 uM after 48 hrs by sulforhodamine B assay; type: functional, cell-based
COLO 205 = assay: Growth inhibition of human COLO205 cells at 1 uM after 48 hrs by sulforhodamine B assay; type: functional, cell-based
HCT-15 = assay: Growth inhibition of human HCT15 cells at 1 uM after 48 hrs by sulforhodamine B assay; type: functional, cell-based
HT-29 = assay: Growth inhibition of human HT-29 cells at 1 uM after 48 hrs by sulforhodamine B assay; type: functional, cell-based
U-251 = assay: Growth inhibition of human U251 cells at 1 uM after 48 hrs by sulforhodamine B assay; type: functional, cell-based
SF530 = assay: Growth inhibition of human SF530 cells at 1 uM after 48 hrs by sulforhodamine B assay; type: functional, cell-based
SNB-75 = assay: Growth inhibition of human SNB75 cells at 1 uM after 48 hrs by sulforhodamine B assay; type: functional, cell-based
LOX IMVI = assay: Growth inhibition of human LOXIMVI cells at 1 uM after 48 hrs by sulforhodamine B assay; type: functional, cell-based
Malme-3M = assay: Growth inhibition of human MALME-3M cells at 1 uM after 48 hrs by sulforhodamine B assay; type: functional, cell-based
SK-MEL-5 = assay: Growth inhibition of human SK-MEL-5 cells at 1 uM after 48 hrs by sulforhodamine B assay; type: functional, cell-based
UACC-62 [10] = assay: Growth inhibition of human UACC62 cells at 1 uM after 48 hrs by sulforhodamine B assay; type: functional, cell-based
IGROV-1 = assay: Growth inhibition of human IGROV1 cells at 1 uM after 48 hrs by sulforhodamine B assay; type: functional, cell-based
NCI/ADR-RES = assay: Growth inhibition of human NCI/ADR-RES cells at 1 uM after 48 hrs by sulforhodamine B assay; type: functional, cell-based
OVCAR-8 = assay: Growth inhibition of human OVCAR8 cells at 1 uM after 48 hrs by sulforhodamine B assay; type: functional, cell-based
CAKI-1 [11] = assay: Growth inhibition of human Caki1 cells at 1 uM after 48 hrs by sulforhodamine B assay; type: functional, cell-based
TK-10 [12] = assay: Growth inhibition of human TK10 cells at 1 uM after 48 hrs by sulforhodamine B assay; type: functional, cell-based
786-0 = assay: Growth inhibition of human 786-0 cells at 1 uM after 48 hrs by sulforhodamine B assay; type: functional, cell-based
PC-3 = assay: Growth inhibition of human PC3 cells at 1 uM after 48 hrs by sulforhodamine B assay; type: functional, cell-based
DU-145 = assay: Growth inhibition of human DU145 cells at 1 uM after 48 hrs by sulforhodamine B assay; type: functional, cell-based
MCF7 [13] = assay: Growth inhibition of human MCF7 cells at 1 uM after 48 hrs by sulforhodamine B assay; type: functional, cell-based
MDA-MB-231 = assay: Growth inhibition of human MDA-MB-231 cells at 1 uM after 48 hrs by sulforhodamine B assay; type: functional, cell-based
BT-549 [14] = assay: Growth inhibition of human BT549 cells at 1 uM after 48 hrs by sulforhodamine B assay; type: functional, cell-based
MDA-MB-468 = assay: Growth inhibition of human MDA-MB-468 cells at 1 uM after 48 hrs by sulforhodamine B assay; type: functional, cell-based
Hs-578T = assay: Growth inhibition of human Hs 578T cells at 1 uM after 48 hrs by sulforhodamine B assay; type: functional, cell-based
[15] = read-out: LC50 (the source's name)

Compound: Nc1nc(N)c2c(n1)NC(c1ccc(Cl)cc1)C1CCc3ccccc3C1=N2 (centres undefined)
- GI50 (NCI-H226): 8.58 µM
- LC50 (NCI-H226): 80.6 µM
- GI50 (NCI-H23 [1]): 4.88 µM
- LC50 (NCI-H23 [1]): 44.7 µM
- GI50 (NCI-H460 [2]): 3.77 µM
- LC50 (NCI-H460 [2]): 39.1 µM
- GI50 (NCI-H522): 5.21 µM
- LC50 (NCI-H522): 54.4 µM
- GI50 (SF-295): 3.37 µM
- LC50 (50% lethal concentration) (SF-295): 40.7 µM
- GI50 (MDA-MB-435): 4.72 µM
- LC50 (concentration killing 50% of cells) (MDA-MB-435): 54.1 µM
- GI50 (UACC-257): 7.07 µM
- CC50 (UACC-257; [15]): 44.9 µM
- GI50 (UACC-62 [3]): 3.66 µM
- LC50 (UACC-62 [3]): 43.3 µM
- GI50 (A498): 5.34 µM
- LC50 (A498): 44.9 µM
- GI50 (ACHN): 4.72 µM
- LC50 (50% lethal concentration) (ACHN): 44.2 µM
- GI50 (CAKI-1 [4]): 4.33 µM
- CC50 (CAKI-1 [4]; [15]): 50 µM
- GI50 (RXF 393): 4.68 µM
- LC50 (50% lethal concentration) (RXF 393): 54.4 µM
- GI50 (SN12C): 7.68 µM
- CC50 (SN12C; [15]): 50.9 µM
- GI50 (TK-10 [5]): 8.2 µM
- LC50 (50% lethal concentration) (TK-10 [5]): 58 µM
- GI50 (MCF7 [6]): 2.41 µM
- LC50 (MCF7 [6]): 33.7 µM
- GI50 (BT-549 [7]): 9.01 µM
- CC50 (BT-549 [7]; [15]): 52.6 µM
- GI50 (T47D): 4.09 µM
- CC50 (T47D; [15]): 59.8 µM
- growth inhibition (GI) (SR): inactive
- growth inhibition (GI) (K562): inactive
- growth inhibition (GI) (MOLT-4): inactive
- growth inhibition (GI) (HOP-92): inactive
- growth inhibition (GI) (NCI-H23 [8]): inactive
- growth inhibition (GI) (NCI-H460 [9]): inactive
- growth inhibition (GI) (NCI-H322M): inactive
- growth inhibition (GI) (COLO 205): inactive
- growth inhibition (GI) (HCT-15): inactive
- growth inhibition (GI) (HT-29): inactive
- growth inhibition (GI) (U-251): inactive
- growth inhibition (GI) (SF530): inactive
- growth inhibition (GI) (SNB-75): inactive
- growth inhibition (GI) (LOX IMVI): inactive
- growth inhibition (GI) (Malme-3M): inactive
- growth inhibition (GI) (SK-MEL-5): inactive
- growth inhibition (GI) (UACC-62 [10]): inactive
- growth inhibition (GI) (IGROV-1): inactive
- growth inhibition (GI) (NCI/ADR-RES): inactive
- growth inhibition (GI) (OVCAR-8): inactive
- growth inhibition (GI) (CAKI-1 [11]): inactive
- growth inhibition (GI) (TK-10 [12]): inactive
- growth inhibition (GI) (786-0): inactive
- growth inhibition (GI) (PC-3): inactive
- growth inhibition (GI) (DU-145): inactive
- growth inhibition (GI) (MCF7 [13]): inactive
- growth inhibition (GI) (MDA-MB-231): inactive
- growth inhibition (GI) (BT-549 [14]): inactive
- growth inhibition (GI) (MDA-MB-468): inactive
- growth inhibition (GI) (Hs-578T): inactive
